#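 1) Cells in 96-well plates. 2) Compound, 48 h, 5 concentrations. 3) Linear interpolation between surrounding doses. 4) Unreached endpoint = highest concentration. GI50 = concentration required for 50% inhibition of growth.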 Calls of active or inactive are those of the source. Cut-off read from the data, not from the text of the source: active = GI50 up to about 1.1 µM and inactive = higher.
# Columns and labels:
# Test in all cases: NCI tumour cell line growth inhibition, 48 h
# OVCAR-5 = system: OVCAR-5
# NCI-H522 = system: NCI-H522
# A549 = system: A549
# MDA-MB-435 = system: MDA-MB-435
# HCT-116 = system: HCT-116
# SF-268 = system: SF-268
# NCI-H226 = system: NCI-H226
# UACC-62 = system: UACC-62
# M14 = system: M14
# CAKI-1 = system: CAKI-1
# SK-OV-3 = system: SK-OV-3
# UACC-257 = system: UACC-257
# OVCAR-8 = system: OVCAR-8
# NCI/ADR-RES = system: NCI/ADR-RES
# SW-620 = system: SW-620
# ACHN = system: ACHN
# MCF7 = system: MCF7
# CCRF-CEM = system: CCRF-CEM
# RPMI-8226 = system: RPMI-8226
# HL-60 = system: HL-60
Structure (SMILES),GI50 (OVCAR-5),GI50 (NCI-H522),GI50 (A549),GI50 (MDA-MB-435),GI50 (HCT-116),GI50 (SF-268),GI50 (NCI-H226),GI50 (UACC-62),GI50 (M14),GI50 (CAKI-1),GI50 (SK-OV-3),GI50 (UACC-257),GI50 (OVCAR-8),GI50 (NCI/ADR-RES),GI50 (SW-620),GI50 (ACHN),GI50 (MCF7),GI50 (CCRF-CEM),GI50 (RPMI-8226),GI50 (HL-60)
COc1ccc2oc(S(=O)(=O)N3CC(CCl)c4ccc([N+](=O)[O-])cc43)cc2c1 (stereo not given),0.832 µM (active),0.0292 µM (active),0.274 µM (active),0.0177 µM (active),0.0908 µM (active),0.299 µM (active),0.127 µM (active),0.055 µM (active),0.122 µM (active),0.0388 µM (active),0.105 µM (active),0.073 µM (active),0.22 µM (active),0.0596 µM (active),0.0841 µM (active),0.179 µM (active),0.0401 µM (active),0.45 µM (active),0.107 µM (active),0.0579 µM (active)
CC(NC(=O)C(NC(=O)CNC(=O)OC(C)(C)C)C(C)C)C(=O)Oc1c(Cl)c(Cl)c(Cl)c(Cl)c1Cl (stereo not given),14.7 µM (inactive),23.9 µM (inactive),22.4 µM (inactive),23.4 µM (inactive),17.3 µM (inactive),23 µM (inactive),19.8 µM (inactive),18.2 µM (inactive),18.8 µM (inactive),19 µM (inactive),21.5 µM (inactive),15.9 µM (inactive),19.4 µM (inactive),17.5 µM (inactive),24.7 µM (inactive),21.8 µM (inactive),25.5 µM (inactive),51.1 µM (inactive),45.2 µM (inactive),55.2 µM (inactive)
c1ccc(CCCNc2nnnc3ccccc23)cc1,> 100 µM (inactive),24.1 µM (inactive),63 µM (inactive),55.1 µM (inactive),> 100 µM (inactive),> 100 µM (inactive),> 100 µM (inactive),36 µM (inactive),> 100 µM (inactive),46.7 µM (inactive),> 100 µM (inactive),67.6 µM (inactive),> 100 µM (inactive),39.4 µM (inactive),> 100 µM (inactive),85.1 µM (inactive),46 µM (inactive),73.8 µM (inactive),35.8 µM (inactive),> 100 µM (inactive)
CCN(CC)c1ccc2cc(-c3csc(-c4ccc(N(C)C)cc4)n3)c(=O)oc2c1,> 100 µM (inactive),> 100 µM (inactive),> 100 µM (inactive),> 100 µM (inactive),> 100 µM (inactive),> 100 µM (inactive),> 100 µM (inactive),> 100 µM (inactive),> 100 µM (inactive),> 100 µM (inactive),> 100 µM (inactive),> 100 µM (inactive),> 100 µM (inactive),> 100 µM (inactive),> 100 µM (inactive),> 100 µM (inactive),> 100 µM (inactive),> 100 µM (inactive),> 100 µM (inactive),> 100 µM (inactive)
O=C(CC(=O)Nc1ccccc1)NNC(c1cc(/N=N/c2ccc(Br)cc2)ccc1O)P(O)O (stereo not given),6.92 µM (inactive),3.48 µM (inactive),6.41 µM (inactive),1.77 µM (inactive),0.504 µM (active),0.964 µM (active),1.57 µM (inactive),1.34 µM (inactive),0.631 µM (active),3.02 µM (inactive),5.48 µM (inactive),4.89 µM (inactive),0.759 µM (active),1.06 µM (active),1.55 µM (inactive),2.12 µM (inactive),1.03 µM (active),0.322 µM (active),1.86 µM (inactive),0.291 µM (active)
Cc1cc(N(CCC#N)CCC#N)ccc1/C=C(\NC(=O)/C=C/c1ccccc1)C(=O)NN,> 100 µM (inactive),> 56.1 µM (inactive),> 100 µM (inactive),> 100 µM (inactive),99.1 µM (inactive),> 53.2 µM (inactive),> 55.6 µM (inactive),> 91 µM (inactive),> 100 µM (inactive),> 100 µM (inactive),31 µM (inactive),> 100 µM (inactive),> 54.1 µM (inactive),> 100 µM (inactive),> 100 µM (inactive),> 80.9 µM (inactive),95.1 µM (inactive),> 100 µM (inactive),> 100 µM (inactive),> 100 µM (inactive)
CN(C)CCNCc1ccc2c(-c3ccccc3)nc3cc(Cl)c(Cl)cc3n12,10.6 µM (inactive),13.6 µM (inactive),10.1 µM (inactive),8.69 µM (inactive),7.74 µM (inactive),13.9 µM (inactive),17.9 µM (inactive),8.85 µM (inactive),8.13 µM (inactive),8.51 µM (inactive),6.43 µM (inactive),9.4 µM (inactive),11.1 µM (inactive),15.8 µM (inactive),8.83 µM (inactive),7.6 µM (inactive),6.19 µM (inactive),1.3 µM (inactive),12.8 µM (inactive),2.01 µM (inactive)

# Source: ChEMBL document CHEMBL1201862, “PubChem BioAssay data set” (2004)
